Experimental data published in the supplement of paper PMC4862054.

How the values were obtained:
Conditions in all cases: 72 h
HCC1143 [1] = system: HCC1143
In short: (§1)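 Two sequential readouts followed a 72 h incubation of breast cancer cell lines with compound at 5 concentrations in 10-fold steps over a compound-specific 10,000-fold range: CellTox Green fluorescence (485/520 nm) for cell death, then CellTiter-Glo luminescence, after 10 min at room temperature, for viability. Each plate was normalised to 0.1 % DMSO and a positive kill control. Dose-response curves were fitted for EC50, censored at the top concentration.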

CAL-120 [2] = system: CAL-120
In short: as §1

BT-474 [3] = system: BT-474
In short: as §1

BT-549 [4] = system: BT-549
In short: as §1

MDA-MB-231 [5] = system: MDA-MB-231
In short: as §1

MCF-10A [6] = system: MCF-10A
In short: as §1

HCC1937 [7] = system: HCC1937
In short: as §1

CAL-51 = system: CAL-51
In short: as §1

HDQ-P1 [8] = system: HDQ-P1
In short: as §1

MFM-223 [9] = system: MFM-223
In short: as §1

Hs578T [10] = system: Hs578T
In short: as §1

BT-474 [11] = system: BT-474; remark: listed apart in the source
Description: (§2)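 Drug sensitivity and resistance testing (DSRT) of breast cancer cell lines in 384-well plates, 5 concentrations in 10-fold dilutions over a compound-specific 10,000-fold range. After 72 h, cytotoxicity was read by CellTox Green fluorescence and viability by CellTiter-Glo luminescence (multiplexed), normalised to DMSO and benzethonium chloride controls. EC50 is the inflection point of the fitted dose-response curve (bottom asymptote free, so it can be relative for partial curves) and is censored at the highest tested concentration. Rows with DSS 0 (no meaningful response) were excluded.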

BT-549 [12] = system: BT-549; remark: listed apart in the source
Description: as §2

MCF-10A [13] = system: MCF-10A; remark: listed apart in the source
Description: as §2

Hs578T [14] = system: Hs578T; remark: listed apart in the source
Description: as §2

SK-BR-3 [15] = system: SK-BR-3
In short: as §1

MDA-MB-436 [16] = system: MDA-MB-436
In short: as §1

CAL-85-1 [17] = system: CAL-85-1
In short: as §1

HCC1599 [18] = system: HCC1599
In short: as §1

CAL-148 [19] = system: CAL-148
In short: as §1

DU-4475 [20] = system: DU-4475
In short: as §1

MDA-MB-453 [21] = system: MDA-MB-453
In short: as §1

HCC1143 [22] = system: HCC1143; remark: listed apart in the source
Description: as §2

MDA-MB-436 [23] = system: MDA-MB-436; remark: listed apart in the source
Description: as §2

CAL-120 [24] = system: CAL-120; remark: listed apart in the source
Description: as §2

HCC1937 [25] = system: HCC1937; remark: listed apart in the source
Description: as §2

CAL-85-1 [26] = system: CAL-85-1; remark: listed apart in the source
Description: as §2

HCC1599 [27] = system: HCC1599; remark: listed apart in the source
Description: as §2

CAL-148 [28] = system: CAL-148; remark: listed apart in the source
Description: as §2

HDQ-P1 [29] = system: HDQ-P1; remark: listed apart in the source
Description: as §2

DU-4475 [30] = system: DU-4475; remark: listed apart in the source
Description: as §2

MDA-MB-468 [31] = system: MDA-MB-468
Description: as §2

MFM-223 [32] = system: MFM-223; remark: listed apart in the source
Description: as §2

MDA-MB-453 [33] = system: MDA-MB-453; remark: listed apart in the source
Description: as §2

CAL-120 [34] = system: CAL-120; remark: listed apart in the source
In short: (§3)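 Compound dissolved in 5 µl medium was placed in 384-well plates before 20 µl of breast cancer cell suspension was added, and the plates were incubated for 72 h. Cells then received 2.5 µl CellTiter-Blue for 2 h at 37 °C, and fluorescence was read at 560/590 nm. EC50 values come from percent-inhibition dose-response fits that were censored at the highest concentration, with plates normalised to vehicle and a positive kill control and rows with a zero drug sensitivity score excluded.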

CAL-148 [35] = system: CAL-148; remark: listed apart in the source
In short: as §3

SK-BR-3 [36] = system: SK-BR-3; remark: listed apart in the source
In short: as §3

HCC1143 [37] = system: HCC1143; remark: listed apart in the source
In short: as §3

MDA-MB-436 [38] = system: MDA-MB-436; remark: listed apart in the source
In short: as §3

BT-549 [39] = system: BT-549; remark: listed apart in the source
In short: as §3

MDA-MB-231 [40] = system: MDA-MB-231; remark: listed apart in the source
In short: as §3

HCC1937 [41] = system: HCC1937; remark: listed apart in the source
In short: as §3

HCC1599 [42] = system: HCC1599; remark: listed apart in the source
In short: as §3

MDA-MB-468 [43] = system: MDA-MB-468; remark: listed apart in the source
In short: as §3

MFM-223 [44] = system: MFM-223; remark: listed apart in the source
In short: as §3

| EC50, CellTiter-Glo (HCC1143 [1]) | EC50, CellTiter-Glo (BT-474 [3]) | EC50, CellTiter-Glo (BT-549 [4]) | EC50, CellTiter-Glo (MDA-MB-231 [5]) | EC50, CellTiter-Glo (HCC1937 [7]) | EC50, CellTiter-Glo (SK-BR-3 [15]) | EC50, CellTiter-Glo (MDA-MB-436 [16]) | EC50, CellTiter-Glo (HCC1599 [18]) | SMILES | EC50, CellTiter-Glo (CAL-120 [2]) | EC50, CellTiter-Glo (MCF-10A [6]) | EC50, CellTiter-Glo (CAL-51) | EC50, CellTiter-Glo (HDQ-P1 [8]) | EC50, CellTiter-Glo (MFM-223 [9]) | EC50, CellTiter-Glo (Hs578T [10]) | EC50, CellTox Green (BT-474 [11]) | EC50, CellTox Green (BT-549 [12]) | EC50, CellTox Green (Hs578T [14]) | EC50, CellTiter-Glo (DU-4475 [20]) | EC50, CellTox Green (CAL-120 [24]) | EC50, CellTox Green (MDA-MB-468 [31]) | also measured |
| --- | --- | --- | --- | --- | --- | --- | --- | --- | --- | --- | --- | --- | --- | --- | --- | --- | --- | --- | --- | --- | --- |
| > 10 µM | 5.15 µM | 2.36 µM | 9.28 µM | 6.15 µM | – | – | – | Nc1cc(C(F)(F)F)c(-c2cc(N3CCOCC3)nc(N3CCOCC3)n2)cn1 [Buparlisib] | 8.23 µM | 0.513 µM | 2.4 µM | 1 µM | 0.225 µM | 2.33 µM | 5.17 µM | 7.7 µM | 5.58 µM | – | – | – | EC50, CellTox Green (MCF-10A [13]): 8.43 µM |
| 8.69 µM | 9.14 µM | 1 µM | 6.15 µM | 8.34 µM | 11.6 µM | 4.33 µM | 9.37 µM | CCOC(=O)CCNc1cc(N2CCc3ccccc3CC2)nc(-c2ccccn2)n1 [GSK-J4] | 12.1 µM | 9.27 µM | 1.34 µM | 11.7 µM | 7.94 µM | 12.2 µM | 2.59 µM | 17.8 µM | 2.28 µM | 7.17 µM | 20 µM | 8.14 µM | EC50, CellTiter-Glo (CAL-85-1 [17]): 5.18 µM; EC50, CellTiter-Glo (CAL-148 [19]): 3.44 µM; EC50, CellTiter-Glo (MDA-MB-453 [21]): 2.96 µM; EC50, CellTox Green (HCC1143 [22]): 0.321 µM; EC50, CellTox Green (MDA-MB-436 [23]): 21.2 µM; EC50, CellTox Green (MCF-10A [13]): 18.1 µM; EC50, CellTox Green (HCC1937 [25]): 24.1 µM; EC50, CellTox Green (CAL-85-1 [26]): 4.08 µM; EC50, CellTox Green (HCC1599 [27]): 5.44 µM; EC50, CellTox Green (CAL-148 [28]): 10.9 µM; EC50, CellTox Green (HDQ-P1 [29]): 9.77 µM; EC50, CellTox Green (DU-4475 [30]): 5.92 µM; EC50, CellTox Green (MFM-223 [32]): 17.4 µM; EC50, CellTox Green (MDA-MB-453 [33]): 22.6 µM |
| 1.62 µM | 1.11 µM | 2.51 µM | 1.3 µM | 2.53 µM | 4.03 µM | 1.51 µM | – | Cc1cc(Nc2cc(CN3CCOCC3)c3nc(C)c(Cc4ccc(Cl)cc4F)n3n2)n[nH]1 [Gandotinib] | 5.01 µM | 3.14 µM | 0.775 µM | 1.93 µM | 0.42 µM | 2.66 µM | – | – | 2.04 µM | 7.86 µM | – | 4.5 µM | EC50, CellTiter-Glo (CAL-85-1 [17]): 0.955 µM; EC50, CellTox Green (MDA-MB-436 [23]): 0.241 µM; EC50, CellTox Green (CAL-85-1 [26]): 6.59 µM |
| – | – | – | – | – | – | 0.54 µM | – | NC(=O)c1ccc(I)c([N+](=O)[O-])c1 [Iniparib] | – | – | – | – | – | – | – | – | – | – | > 10 µM | – | EC50, CellTiter-Blue viability (CAL-120 [34]): 3.29 µM |
| – | 2.55 µM | 9.39 µM | – | – | 1.18 µM | 1.16 µM | 6.85 µM | CCc1c2c(nc3ccc(OC(=O)N4CCC(N5CCCCC5)CC4)cc13)-c1cc3c(c(=O)n1C2)COC(=O)[C@]3(O)CC [Irinotecan] | 2.59 µM | 4.29 µM | 3.29 µM | – | – | – | – | – | > 10 µM | 1.84 µM | 5.53 µM | – | EC50, CellTiter-Glo (CAL-148 [19]): 1.45 µM; EC50, CellTiter-Blue viability (CAL-148 [35]): 1.17 µM; EC50, CellTox Green (CAL-148 [28]): 0.304 µM; EC50, CellTiter-Blue viability (SK-BR-3 [36]): 3.74 µM; EC50, CellTiter-Blue viability (HCC1143 [37]): 2.35 µM; EC50, CellTiter-Blue viability (MDA-MB-436 [38]): 1.01 µM; EC50, CellTiter-Blue viability (CAL-120 [34]): 1.11 µM; EC50, CellTiter-Blue viability (BT-549 [39]): 4.11 µM; EC50, CellTiter-Blue viability (MDA-MB-231 [40]): 8.35 µM; EC50, CellTiter-Blue viability (HCC1937 [41]): 0.961 µM; EC50, CellTiter-Blue viability (HCC1599 [42]): 0.692 µM; EC50, CellTiter-Blue viability (MDA-MB-468 [43]): 1.43 µM; EC50, CellTiter-Blue viability (MFM-223 [44]): 9.11 µM |
| – | 7.58 µM | 1.88 µM | > 10 µM | > 10 µM | 7.39 µM | – | 9.36 µM | Cc1ccc(NC(=O)c2ccc(CN3CCN(C)CC3)cc2)cc1Nc1nc(-c2cccnc2)cs1 [Masitinib] | – | – | 5.46 µM | 4.91 µM | > 10 µM | – | – | – | – | – | – | 7.16 µM | EC50, CellTiter-Glo (MDA-MB-453 [21]): 1.62 µM; EC50, CellTox Green (HCC1599 [27]): 8.82 µM; EC50, CellTiter-Blue viability (SK-BR-3 [36]): 6.5 µM; EC50, CellTiter-Blue viability (MDA-MB-436 [38]): > 10 µM |
